From US20100297109A1, “METHODS FOR INHIBITING FASCIN” (Cornell University, priority 2007, published 2010)

Experiments:
[1] = system: mouse breast tumor 4T1 cells; assay: Wound-healing assay, serum-induced migration of 4T1 cells; format: cell-based; conditions: 2 μM
Experimental: (§1) Cells. Mouse 4T1 mammary tumor cells and human MDA-MB-231 breast tumor cells were obtained from ATCC and have been described previously (Shan et al. 2005, Yang et al. 2005). 4T1 cells were cultured in RPMI 1640 medium supplemented with 10% FBS. MDA-MB-231 cells were cultured in DMEM supplemented with 10% FBS. Wound-healing assay. The wound-healing assay involves observing whether confluent cells can migrate across a scrape or wound in the cell layer. Cell migration assays were performed as described previously (Yang et al. 2005, Shan et al 2006). Tumor cells were plated in a 24-well plate coated with gelatin in standard media. After the cells grew to confluence, wounds were made in the confluent layer of cell using a sterile instrument such as a sterile pipette tip. The cells were washed with Phosphate Buffered Saline (PBS) or other sterile solutions and then the migration was induced by adding medium supplemented with 10% FBS. When the wound for the positive control closed, cells were fixed with 3.7% formaldehyde and stained with crystal violet staining solution. […] Photographs several random regions of the filter facing the second chamber are taken and the number of cells counted to calculate the average number of cells that had transmigrated.

4T1 cells = assay: Boyden chamber cell migration assay, serum-induced migration of 4T1 cells; format: cell-based, mouse; conditions: FIGS. 1C and 1D
Experimental: as §1, with “media.” for “media. After the cells grew to confluence, wounds were made in the confluent layer of cell using a sterile instrument such as a sterile pipette tip. The cells were washed with Phosphate Buffered Saline (PBS) or other sterile solutions and then the migration was induced by adding medium supplemented with 10% FBS. When the wound for the positive control closed, cells were fixed with 3.7% formaldehyde and stained with crystal violet staining solution.”
Boyden Chamber Cell Migration Assay. […] Three randomly selected fields (10× objectives) on the lower side of the insert were photographed, and the migrated cells were counted. The migration was expressed as either the average number of migrated cells in a field or as percentage of migrated cells in positive control. Percentage was calculated with the formula P=100×(M−Mnc)/Mpc, where P is the percentage of migrated cells, M is the number of migrated cells, Mnc is the number of migrated cells in negative controls, and Mpc is the number of migrated cells in positive controls.

[2] = system: human breast tumor MDA-MB-231 cells; assay: Wound-healing assay, serum-induced migration of MDA-MB-231 cells; format: cell-based; conditions: 20 μM
Experimental: as §1

[3] = system: human colon tumor Lovo cells; assay: Cell migration assay, Lovo cells; format: cell-based
[4] = biological target: T1, fascin His474 to Ala mutant (Homo sapiens, UniProt Q16658, H474A); assay: Actin bundling assay with fascin H474A mutant; format: biochemical
T1 construct: GST (N, cleaved yes); made in house; host or cells: Escherichia coli BL21 (pGEX4T-Fascin1)
Text: Identification of fascin as the protein target of migrastatin analogs. Whole cell lysates from 4T1 mouse breast tumor cells were made. After preclearing the cell lysate with immobilized neutravidin biotin binding protein (Pierce, IL, USA) to remove biotin and avidin-binding proteins, the cell lysates were loaded to a column packed with the biotin-labeled macroketone (conjugated to neutravidin beads). A control column packed with free biotin and neutravidin beads was run side-by-side. After washing the column with 10 bed volumes of lysis buffer with 300 mM NaCl, the bound proteins were eluted with 0.1 M Glycine-HCl at pH 2.8 according to the manufacturer's instruction. […] A 1-liter culture was grown to an A600 reading of 1.0 and then induced by addition of 0.3 mM isopropyl 1-thio-D-galactopyranoside (IPTG) for 12 hours at 25° C. […] Actin bundling activity was measured by low speed centrifugation assay and fluorescence microscopy. […] Both supernatants and pellets were dissolved in an equivalent volume of SDS sample buffer, and the amount of actin was determined by SDS-PAGE. For fluorescence microscopy, monomeric G-actin was polymerized as described above. […] The samples were mounted between a slide and a coverslip coated with poly-lysine and imaged by fluorescence microscopy. […] Both supernatants and pellets were dissolved in an equivalent volume of SDS sample buffer and analyzed by SDS-PAGE. […]

fascin = fascin (Homo sapiens, UniProt Q16658); assay: F-actin binding assay, high-speed centrifugation; parameters: GST (N); made in house; host or cells: Escherichia coli BL21

## COC1C=CCCCCC(=O)CCC(C)=CC(C)C1O (stereo not drawn) [macroketone, Migrastatin ketone]
[1]
  inhibition of serum-induced migration (wound-healing): inhibited the migration
4T1 cells
  IC50: 0.1 µM
[2]
  inhibition of serum-induced migration (wound-healing): inhibited the migration
[3]
  inhibition of migration: inhibited the migration
[4]
  sensitivity of actin bundling activity of fascin mutant: resistant
fascin
  fascin pulled down by F-actin: significantly less fascin was pulled down
